Measurements from article PMC12124432, “Antimicrobial Peptide‐Peptoid Macrocycles from the Polymyxin B2 Chemical Space” (Angewandte Chemie (International Ed. in English), 2025).
Values after ≈ are worked out from the molar mass of the structure shown. Numbered stars: 1 amine (or outer) side, 2 acyl side, 3 side chain; on linkers, the order of the positions; unused ones are H or OH. Bridge positions count the residues as written; N and C are the ends. Square brackets hold non-standard residues; d marks the D form. Peptide text beside a SMILES is read from it. * marks the point of attachment. NGly(CH2(3-pyridyl)) = O=C(O)CNCc1cccnc1; Propanoyl(3-cPent) = O=C(CCC1CCCC1)*; Gly(NCH2CH2Ph) = O=C(O)CNCCc1ccccc1; Cyclopentylacetyl = O=C(CC1CCCC1)*; Gly(N-2-aminoethyl) = NCCNCC(=O)O; X1 = O=C(CN(Cc1ccccn1)[*:1])[*:2]; Pentanoyl(4-Me) = CC(C)CCC(=O)*; Gly(N(CH2)3NH2) = NCCCNCC(=O)O; Gly(N-cHex) = O=C(O)CNC1CCCCC1; Gly(N-CH2CH2OH) = O=C(O)CNCCO; Heptanoyl = CCCCCCC(=O)*; NHexGly = CCCCCCNCC(=O)O; Nphe = O=C(O)CNCc1ccccc1; Octanoyl = CCCCCCCC(=O)*; Dab = NCC[C@H](N)C(=O)O; Pentanoyl = CCCCC(=O)*; Nleu = CC(C)CNCC(=O)O; NPrGly = CCCNCC(=O)O; Nlys = NCCCCNCC(=O)O

Key:
E. coli W3110 = format: cell-based, Escherichia coli; conditions: W3110, pH 8.5
Experimental: (§1) Minimal Inhibitory Concentration (MIC)
(§2) Antimicrobial activity was assayed for all the peptide-peptoids against P. aeruginosa PAO1, K. pneumoniae NCTC418, E. coli W3110, A. baumannii ATCC 19606, methicillin-resistant S. aureus COL (MRSA) and for selected peptides on P. aeruginosa PA14, as well as the clinical isolates ZEM-1A and ZEM9A, K. pneumoniae OXA-48, Enterobacter cloacae, Stenotrophomonas maltophilia and Staphylococus epidermidis. To determine the Minimal Inhibitory Concentration (MIC), Broth Microdilution method was used. A colony of bacteria was picked and grown in LB medium overnight at 37 °C. The next day, the culture was then regrown in LB medium to log phase (OD600 = 0.6 to 0.8), which lasted approximately 4 hours, and diluted to an OD600 of 0.022 in the desired medium (full MH or 12.5% MH).
(§3) The compounds were prepared as stock solutions of 2 mg/mL in sterilized MilliQ deionized water and then diluted in the desired media (full MH or 12.5% MH) to reach the first concentration tested (32 μg/mL). The compounds were added to the first well of a 96-well sterile, round bottom microtiter plates in polystyrene (TPP®, untreated) and diluted serially by ½ in the desired media (full MH or 12.5% MH), to a final volume of 150 µL/well. To each well was finally added 4 µL of the diluted bacterial suspension (see above), corresponding to approximately 5×10^5 CFU. For each test, two columns of the plate were kept for sterility control (medium only), growth control (medium with bacterial inoculum, no compound). The positive control, Polymyxin B (starting with a concentration of 16 µg/mL) in MH medium with bacterial inoculums, was introduced in the two first lines of the plate. The plates were incubated at 37 °C for ca. 18 hours under static conditions. 15 µL of 3-(4,5-dimethylthiazol-2-yl)-2,5-diphenyltetrazolium bromide (MTT)[7] (1 mg/mL in sterilized MilliQ deionized water) were added to each well and the plates were incubated for 20-30 minutes at room temperature. The […]
(§4) minimal inhibitory concentration (MIC) was defined as the lowest concentration of the compound that inhibits the visible growth of the tested bacteria (yellow) with the unaided eye.
(§5) Minimal Hemolytic Concentration (MHC) […]
(§6) 11. Minimal inhibitory in presence of salt
The same procedure as for the antibacterial activity measurements by minimal inhibitory concentration assay (MIC) was applied. The media, 12.5% Mueller-Hinton broth was this time supplemented with different salt concentrations (0, 100, 200 300 mM NaCl). […]
(§7) All data, in μg/mL, measured against P. aeruginosa PAO1, with or without addition of salt (NaCl). The values were measured in dilute medium (12.5% MH) and at slightly basic pH (pH = 8.5), after incubation for 16-20 h at 37 °C. Values represent two different duplicate MIC determinations.

P. aeruginosa PAO1 = format: cell-based, Pseudomonas aeruginosa; conditions: PAO1, pH 8.5
Experimental: as §1, §2, §3, §4, §5, §6
The same procedure as for the antibacterial activity measurements by minimal inhibitory concentration assay (MIC) was applied. The media, 12.5% Mueller-Hinton broth was this time supplemented with different salt concentrations (0, 100, 200 300 mM NaCl). The MIC activities were then determined against Pseudomonas aeruginosa PAO1 and Escherichia coli […]
Table S6. Minimal inhibitory concentration (MIC) on P. aeruginosa PAO1 as function of salt […]
as §7

SMILES | MIC on E. coli, 0 mM NaCl (E. coli W3110) [µg/mL] | MIC on E. coli, 100 mM NaCl (E. coli W3110) [µg/mL] | MIC on E. coli, 200 mM NaCl (E. coli W3110) [µg/mL] | MIC on E. coli, 300 mM NaCl (E. coli W3110) [µg/mL] | MIC on P. aeruginosa, 0 mM NaCl (P. aeruginosa PAO1) [µg/mL] | MIC on P. aeruginosa, 100 mM NaCl (P. aeruginosa PAO1) [µg/mL] | MIC on P. aeruginosa, 200 mM NaCl (P. aeruginosa PAO1) [µg/mL] | MIC on P. aeruginosa, 300 mM NaCl (P. aeruginosa PAO1) [µg/mL]
CC(C)C[C@H](NC(=O)CN(CC(C)C)C(=O)[C@H](CC(C)C)NC(=O)CN(CCCCN)C(=O)[C@H](CC(C)C)NC(=O)CN(CC(C)C)C(=O)[C@H](CCCCN)NC(=O)CN(CC(C)C)C(=O)[C@H](CC(C)C)NC(=O)CN(CCCCN)C(=O)[C@@H](N)CCCCN)C(N)=O [EB9, reference compound] (H-K[Nlys]L[Nleu]K[Nleu]L[Nlys]L[Nleu]L-NH2) | 2 (≈ 1.51 µM) | 16 (≈ 12.1 µM) | 64 (≈ 48.4 µM) | > 64 | 2 (≈ 1.51 µM) | 32 (≈ 24.2 µM) | > 64 | > 64
CCCCCCCC(=O)N(CCN)CC(=O)N[C@@H](Cc1ccc(O)cc1)C(=O)N[C@@H](CCCCN)C(=O)N[C@H]1CCNC(=O)[C@H](CCCCN)NC(=O)CN(CCN)C(=O)[C@H](CCCNC(=N)N)NC(=O)[C@H](CCCCN)NC1=O [EB14] (Octanoyl-[Gly(N-2-aminoethyl)]YK[Dab]KR[Gly(N-2-aminoethyl)]K; lactam 4-C) | 1 (≈ 0.885 µM) | 16 (≈ 14.2 µM) | 64 (≈ 56.6 µM) | > 64 | 4 (≈ 3.54 µM) | > 64 | > 64 | > 64
CCCCCCCC(=O)N(CC(=O)N(CCN)CC(=O)N[C@@H](CCC(N)=O)C(=O)N[C@H]1CCNC(=O)[C@H](CCCCN)NC(=O)[C@H](CCCCN)NC(=O)CN(CCCCN)C(=O)[C@H](CCCCN)NC1=O)Cc1ccccn1 [EB16] (Octanoyl-[X1][Gly(N-2-aminoethyl)]Q[Dab]K[Nlys]KK; lactam 4-C) | 0.5 (≈ 0.448 µM) | 32 (≈ 28.7 µM) | > 64 | > 64 | 4 (≈ 3.59 µM) | > 64 | > 64 | > 64
CC(C)[C@@H]1NC(=O)[C@H](CCCCN)NC(=O)CN(CCN)C(=O)[C@H](CC(N)=O)NC(=O)[C@@H](NC(=O)CN(CCN)C(=O)[C@H](CCCCN)NC(=O)CN(CCc2ccccc2)C(=O)CC2CCCC2)CCNC(=O)[C@H](CCCCN)NC1=O [EB20] (Cyclopentylacetyl-[Gly(NCH2CH2Ph)]K[Gly(N-2-aminoethyl)][Dab]N[Gly(N-2-aminoethyl)]KVK; lactam 4-C; N-terminus assumed) | 1 (≈ 0.855 µM) | 64 (≈ 54.7 µM) | > 64 | > 64 | 16 (≈ 13.7 µM) | > 64 | > 64 | > 64
CCCCCCN(CC(=O)N[C@H]1CCNC(=O)[C@H](CCCCN)NC(=O)CN(CCN)C(=O)CN(CCN)C(=O)[C@H](CCCCN)NC(=O)[C@H](CC(N)=O)NC(=O)[C@H](CCCCN)NC1=O)C(=O)[C@H](CCCCN)NC(=O)CN(Cc1ccccc1)C(=O)CCCC [EB22] (Pentanoyl-[Nphe]K[NHexGly][Dab]KNK[Gly(N-2-aminoethyl)][Gly(N-2-aminoethyl)]K; lactam 4-C) | 1 (≈ 0.769 µM) | 16 (≈ 12.3 µM) | > 64 | > 64 | 4 (≈ 3.08 µM) | > 64 | > 64 | > 64
CCCCCCC(=O)N(CC(=O)N(CCCN)CC(=O)N(CCN)CC(=O)N[C@H]1CCNC(=O)[C@H](CCCCN)NC(=O)CN(C2CCCCC2)C(=O)CN(CCN)C(=O)[C@H](CCC(N)=O)NC(=O)[C@H](CCCNC(=N)N)NC1=O)Cc1ccccc1 [EB23] (Heptanoyl-[Nphe][Gly(N(CH2)3NH2)][Gly(N-2-aminoethyl)][Dab]RQ[Gly(N-2-aminoethyl)][Gly(N-cHex)]K; lactam 4-C) | 2 (≈ 1.63 µM) | > 64 | > 64 | > 64 | 16 (≈ 13.1 µM) | > 64 | > 64 | > 64
CCCN1CC(=O)N[C@@H](CC(N)=O)C(=O)N[C@@H](CCCCN)C(=O)N(CCCN)CC(=O)N[C@@H](CCCCN)C(=O)NCC[C@H](NC(=O)[C@H](CCCNC(=N)N)NC(=O)CNC(=O)CN(CCc2ccccc2)C(=O)CCC(C)C)C1=O [EB26] ({Pentanoyl(4-Me)}-[Gly(NCH2CH2Ph)]GR[Dab][NPrGly]NK[Gly(N(CH2)3NH2)]K; lactam 4-C) | 4 (≈ 3.46 µM) | 16 (≈ 13.8 µM) | > 64 | > 64 | 16 (≈ 13.8 µM) | > 64 | > 64 | > 64
NCCCC[C@@H]1NC(=O)CN(CCO)C(=O)[C@@H]2CCCN2C(=O)CN(CCCN)C(=O)[C@@H](NC(=O)[C@H](CC(N)=O)NC(=O)[C@H](CCCCN)NC(=O)[C@H](CCCCN)NC(=O)CN(Cc2ccccc2)C(=O)CCC2CCCC2)CCNC1=O [EB32] ({Propanoyl(3-cPent)}-[Nphe]KKN[Dab][Gly(N(CH2)3NH2)]P[Gly(N-CH2CH2OH)]K; lactam 5-C) | 4 (≈ 3.38 µM) | > 64 | > 64 | > 64 | 32 (≈ 27.1 µM) | > 64 | > 64 | > 64
CCCCCCCC(=O)N(CC(=O)N(CCCN)CC(=O)N[C@@H](CCC(N)=O)C(=O)N[C@H]1CCNC(=O)[C@H](CCCCN)NC(=O)[C@H](CCCCN)NC(=O)[C@H](CCC(N)=O)NC(=O)CN(CCCCN)C1=O)Cc1cccnc1 [EB34] (Octanoyl-[NGly(CH2(3-pyridyl))][Gly(N(CH2)3NH2)]Q[Dab][Nlys]QKK; lactam 4-C) | 8 (≈ 7.08 µM) | > 64 | > 64 | > 64 | 32 (≈ 28.3 µM) | > 64 | > 64 | > 64
